Measurements reported in patent US20080248008A1, “Inhibitors of Protein Kinase a Anchoring” (priority 2004, published 2008).

What was measured:
[1] = target: T1, PKA type I in lipid rafts of human peripheral blood T cells (Homo sapiens, UniProt P10644); test: PKA type I content of lipid rafts from human T cells (immunoblot densitometry); assay type: cell-based; details: n=4; for reduction of PKA type I in lipid rafts: 12 hours
T1 construct: endogenous in cells; host or cells: human peripheral blood T cells
Experimental: Lipid Raft Purification. Isolation of lipid rafts or glycolipid-enriched membrane microdomains was performed as described in detail elsewhere (Zhang, W. et al., 1998, Immunity 9:239-246). In brief, cells were homogenized in 1 ml ice-cold lysis buffer (50 mM Hepes, pH 7.4, 100 mM NaCl, 5 mM EDTA, […], 10 mM sodium pyrophosphate, 1 mM Na3VO4, 50 mM NaF, 1 mM PMSF, and protease inhibitors) by 10 pestle strokes in a Dounce homogenizer, loaded at the bottom of a 40-5% sucrose gradient and centrifuged at 200,000 g for 5 or 20 h. 80 μl or 0.4-ml fractions were collected from the top. The fractions were analysed by immunoblot analysis. LAT was used as a marker for lipid raft fractions.
Isolation of T cells. Human peripheral blood T cells were purified by negative selection (95-98% pure) as described (Aandahl E M et al., 1998, FASEB J. 12:855-62). Lipid Raft Purification. Isolation of lipid rafts or glycosphingolipid-enriched membrane microdomains from T cells was performed by small scale ultracentrifugation. In brief, 20 million cells were homogenized in 250 μl ice-cold lysis buffer (50 mM Hepes, pH 7.4, 100 mM NaCl, 5 mM EDTA, […], 10 mM sodium pyrophosphate, 1 mM Na3VO4, 50 mM NaF, 1 mM PMSF, and protease inhibitors) by 10 pestle strokes in a Dounce homogenizer, loaded at the bottom of a 40 to 50 sucrose gradient and centrifuged at 200,000 g for 5 h. 80 μl fractions were collected from the top. The fractions were analysed by immunoblot analysis. LAT was used as a marker for lipid raft fractions. […]
Lipid rafts were purified from isolated human peripheral blood T cells treated with MEME3-Arg11 or SM3-Arg11 for 12 hours, followed by 10% PAGE and blotting onto a PVDF membrane and immunoblotting (FIG. 18, left panel). The PKA content was measured by densitometry of immunoblots (n=4). […] The very weak signal observed after immunoblotting using antibodies against RIIα (data not shown) was measured by densitometry of the autoradiogram. […]

StAR = StAR protein level in Y1 adrenal cells (immunoblot densitometry); assay type: cell-based, mouse
Experimental: Progesterone production and StAR protein level. Y1 cells were cultured overnight in 6-well plates at the density of 1.5×10^6 cells per well. To increase the basal level of StAR, the cells were pre-stimulated with 10 μM forskolin for 1 hour, washed twice with medium, before peptide loading. Thereafter, the cells were loaded with 50 μM of the arginine-coupled peptide for 5 hours before being treated with 5 μg/ml Actinomyocin D (Cat. No. A-9415, Sigma) for 30 min and stimulated with 10 μM forskolin (Cat. No. 344270, Calbiochem) or 10 IU/ml ACTH (Cat. No. A-6303, Sigma) for 12 hours. Media from cultures with different treatments were collected and diluted with plain medium to fall into the standard curves for the assay. Progesterone in the cell medium was measured by using either Spectria Progesterone RIA (Cat. No. 68521, Orion Diagnostica, Espoo, Finland) or DELFIA progesterone kit (Cat. No. A066-101, PerkinElmer) following the conditions recommended by the manufacture. The cells were lysed and the StAR protein was analysed by western blotting and the level measured by densiometric analysis.
StAR protein levels in the samples from Example 28 were analysed by immunoblotting. StAR consists of a 37-kDa precursor form containing an N-terminal mitochondrial targeting sequence and a processed 30-kDa mature protein (Epstein and Ormejohnson, 1991; Stocco and Sodeman, 1991). Y1 adrenal cells expressed a low basal level of StAR (FIG. 27, upper panel, lane 1). Upon forskolin stimulation, a significant increase in mature StAR protein (lane 2) occurred consistent with an increase in cholesterol transport over the mitochondrial membrane and a corresponding increase in steroid biosynthesis (bar diagram in FIG. 26). The forskolin-stimulated levels of StAR protein were reduced by 60% in MEME3-Arg11 treated cells (lane 5 and lower panel). In contrast, treatment with SM3-Arg11 reduced StAR levels by […] (lane 8, and lower panel). Thus, MEME3-Arg11 reduced StAR levels by […] as SM3-Arg11. […]

LEQYANQLADQIIKEATERRRRRRRRRrr [MEME3-Arg11]
reduction of PKA type I in lipid rafts ([1]; 10 μM): 80%
reduction of RI and C concentration in lipid rafts compared to SM3 ([1]; 10 μM, primary human T cells): 80%
reduction of PKA type I in lipid rafts ([1]; 25 μM): 90%
reduction of StAR levels relative to SM3-Arg11 (StAR): twice as much
reduction of forskolin-stimulated levels of StAR protein (StAR; forskolin): 60%
basal StAR level (StAR; unstimulated): somewhat higher basal StAR level
